From patent publication US8138219B2, “Tryptamine sulfonamides as 5-HT6 antagonists” (Merck Sharp & Dohme Corp., priority 2007, dated 2012)
Like-named read-outs stand apart in the source and are kept apart here.

Legend:
Human 5-HT6 = target: T1, Human 5-HT6 (Homo sapiens, UniProt P50406); experiment: 5-HT6 receptor binding assay ([3H]5-HT displacement, SPA), human receptor
T1 construct: expressed in transfected cells
Protocol: (§1) 5-HT6 Receptor Binding Assay
(§2) Affinity (IC50) of a compound for cloned human, rat, or mouse 5-HT6 receptor was measured by its ability to displace [^3H]5-HT using cell membranes prepared from cultured cells and scintillation proximity assay (SPA) beads that bind to cell membranes (Catalog No. RPNQ0001; GE Healthcare Life Sciences, Piscataway, N.J.). Assays were carried out in 200 μl binding buffer (50 mM Tris-HCl, pH 7.4, 5 mM MgCl2, 0.5 mM EDTA, 10 μM pargyline and 0.1% ascorbic acid) in 96-well plates. Cell membranes were re-suspended in binding buffer to final concentration of up to 0.2 mg protein/ml and mixed with reconstituted SPA beads to a final concentration of 0.25 mg/ml. To each well, […] of above mixture, 50 of cold compound (to 10^−10 to 10^−5 M final concentration) and 50 μl of [^3H]5-HT radioligand (specific activity, 100 Ci/mmol, GE Healthcare Life Sciences; final concentration, 5 nM) were added. Following 1 h incubation at room temperature, the radioactivity bound to the cell membranes was measured on a scintillation counter.

Mouse 5-HT6 = target: T2, Mouse 5-HT6 (Mus musculus, UniProt Q9R1C8); experiment: 5-HT6 receptor binding assay ([3H]5-HT displacement, SPA), mouse receptor
T2 construct: expressed in transfected cells
T2 sequence (Q9R1C8 whole entry): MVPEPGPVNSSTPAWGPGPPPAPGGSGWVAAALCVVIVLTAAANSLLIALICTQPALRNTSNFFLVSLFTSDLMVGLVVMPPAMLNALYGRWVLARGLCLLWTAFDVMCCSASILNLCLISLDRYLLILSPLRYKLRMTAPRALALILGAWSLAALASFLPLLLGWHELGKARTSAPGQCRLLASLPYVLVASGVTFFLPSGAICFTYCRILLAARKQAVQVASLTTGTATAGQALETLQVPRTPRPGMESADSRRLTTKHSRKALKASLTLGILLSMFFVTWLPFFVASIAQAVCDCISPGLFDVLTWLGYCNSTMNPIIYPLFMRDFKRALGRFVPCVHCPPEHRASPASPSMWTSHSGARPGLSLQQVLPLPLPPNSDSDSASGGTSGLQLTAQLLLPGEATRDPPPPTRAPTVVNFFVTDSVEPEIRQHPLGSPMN
Protocol: as §1, §2

[1] = test system: 5-HT6 receptor expressed in CHO cells; experiment: 5-HT6 receptor functional activity assay (cellular cAMP levels, CHO cells); type: cell-based, human, rat, or mouse; settings: concentration up to 10 micromolar; cAMP accumulation; species not specified
Protocol: 5-HT6 Receptor Functional Activity Assay.
The functional activation of human, rat, or mouse 5-HT6 receptor expressed in CHO cells was determined by measuring cellular cAMP levels following the exposure of the cells to a compound using the SPA cAMP Screening System (Catalog No. RPA556, GE Healthcare) in 96-well OptiPlates (Catalog No. 6005190, PerkinElmer, Boston, Mass.). Cells expressing recombinant receptors were harvested and then re-suspended at approximately 2.0×10^6 cells/ml in assay medium containing Earle's Balanced Salt Solution (EBSS, pH 7.4) supplemented with 25 mM Hepes, 5 mM MgCl2 and 0.05% BSA. Cells (50 μl, ˜10^5 cells) were transferred to wells, to give a final volume of 100 μl containing various concentrations of compounds. The plate was incubated at 37° C. for 30 min and the reaction was terminated by boiling for 3 min. The accumulation of cAMP in 15 μl lysate was measured according to manufacture's instructions.

[2] = cloned human 5-HT6 receptor, cell membranes, [3H]5-HT 5 nM, read-out: Human 5-HT6 binding IC50
[3] = cloned mouse 5-HT6 receptor, cell membranes, [3H]5-HT 5 nM, read-out: Mouse 5-HT6 binding IC50

T1 sequence (P50406 whole entry): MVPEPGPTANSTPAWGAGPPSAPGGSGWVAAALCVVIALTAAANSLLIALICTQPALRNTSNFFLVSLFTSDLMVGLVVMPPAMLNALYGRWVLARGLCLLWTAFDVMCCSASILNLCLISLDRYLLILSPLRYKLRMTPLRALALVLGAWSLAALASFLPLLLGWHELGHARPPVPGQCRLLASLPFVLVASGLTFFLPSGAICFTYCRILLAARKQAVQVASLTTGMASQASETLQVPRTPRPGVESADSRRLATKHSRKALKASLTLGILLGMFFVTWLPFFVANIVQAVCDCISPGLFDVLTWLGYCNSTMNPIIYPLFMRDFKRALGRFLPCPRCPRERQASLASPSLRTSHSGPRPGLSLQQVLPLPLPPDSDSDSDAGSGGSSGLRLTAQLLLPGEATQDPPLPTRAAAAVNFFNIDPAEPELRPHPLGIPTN

IC50 (Human 5-HT6; [2]) | IC50 (Mouse 5-HT6; [3]) | SMILES | functional activation of 5-HT6 receptor (detectable activity) [1] | IC50 (Human 5-HT6) | IC50 (Mouse 5-HT6)
0.2 nM | 2 nM | Cl.O=S(=O)(c1ccccc1)n1cc(CCNCc2cccc(OCC(F)(F)C(F)F)c2)c2ccc(F)cc21 [Example 1] | did not show detectable activity |  | 
 |  | O=S(=O)(c1ccc(OC(F)(F)F)cc1)n1cc(CCNCc2cccc(OCC(F)(F)C(F)F)c2)c2ccc(F)cc21 [Example 2] |  | 46.4 nM | 211 nM
0.593 nM | 170 nM | COc1cccc(S(=O)(=O)n2cc(CCNCc3cccc(OCC(F)(F)C(F)F)c3)c3ccc(F)cc32)c1 [Example 3] |  |  | 
0.805 nM | 60.2 nM | O=S(=O)(c1cccc(Cl)c1)n1cc(CCNCc2cccc(OCC(F)(F)C(F)F)c2)c2ccc(F)cc21 [Example 4] |  |  | 
2.88 nM | 148 nM | O=S(=O)(c1cc(Cl)cc(Cl)c1)n1cc(CCNCc2cccc(OCC(F)(F)C(F)F)c2)c2ccc(F)cc21 [Example 5] |  |  | 
 |  | O=S(=O)(c1ccc(F)cc1)n1cc(CCNCc2cccc(OCC(F)(F)C(F)F)c2)c2ccc(F)cc21 [Example 6] |  | 2.88 nM | 21.6 nM
3.4 nM | 7.27 nM | O=S(=O)(c1ccc(Cl)cc1)n1cc(CCNCc2cccc(OCC(F)(F)C(F)F)c2)c2ccc(F)cc21 [Example 7] |  |  | 
2.05 nM | 15.4 nM | O=S(=O)(c1ccc(Br)cc1)n1cc(CCNCc2cccc(OCC(F)(F)C(F)F)c2)c2ccc(F)cc21 [Example 8] |  |  | 
8.85 nM | 127 nM | O=S(=O)(c1ccc(F)c(Cl)c1)n1cc(CCNCc2cccc(OCC(F)(F)C(F)F)c2)c2ccc(F)cc21 [Example 9] |  |  | 
0.626 nM | 60 nM | O=S(=O)(c1cccc(C(F)(F)F)c1)n1cc(CCNCc2cccc(OCC(F)(F)C(F)F)c2)c2ccc(F)cc21 [Example 10] |  |  | 
0.371 nM | 17.6 nM | O=S(=O)(c1cccc(F)c1)n1cc(CCNCc2cccc(OCC(F)(F)C(F)F)c2)c2ccc(F)cc21 [Example 11] |  |  | 
 |  | CS(=O)(=O)n1cc(CCNCc2cccc(OCC(F)(F)C(F)F)c2)c2ccc(F)cc21 [Example 12] |  | 1.61 nM | 9.51 nM
 |  | CCS(=O)(=O)n1cc(CCNCc2cccc(OCC(F)(F)C(F)F)c2)c2ccc(F)cc21 [Example 13] |  | 2.62 nM | 11.7 nM
20 nM | 57.1 nM | CC(C)S(=O)(=O)n1cc(CCNCc2cccc(OCC(F)(F)C(F)F)c2)c2ccc(F)cc21 [Example 14] |  |  | 
10.2 nM | 187 nM | COc1ccc(S(=O)(=O)n2cc(CCNCc3cccc(OCC(F)(F)C(F)F)c3)c3ccc(F)cc32)cc1 [Example 15] |  |  | 
